#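 Test compounds were applied to cells in 96-well plates for 48 hours at 5 doses. Definition used: TGI = concentration required for complete inhibition of growth.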
# Columns and labels:
# Assay in all cases: NCI tumour cell line growth inhibition, 48 h
# [1] = system: SW-620 colon
# [2] = system: OVCAR-3 ovarian
# [3] = system: MDA-N
# [4] = system: HCC-2998 colon
# [5] = system: SR leukemia
# [6] = system: DU-145 prostate
# [7] = system: SNB-75 CNS
# [8] = system: OVCAR-8 ovarian
# [9] = system: BT-549 breast
# [10] = system: SN12C renal
SMILES,TGI [1],TGI [2],TGI [3],TGI [4],TGI [5],TGI [6],TGI [7],TGI [8],TGI [9],TGI [10]
CC1CN=C(Nc2cccc(F)c2)S1 (stereo not given),> 100 µM,> 100 µM,> 100 µM,> 100 µM,> 100 µM,> 100 µM,> 100 µM,> 100 µM,> 100 µM,> 100 µM
Cc1ccc(-c2c(-c3ccccc3)[nH]c(C)c2C(=O)ONC(=O)c2ccccc2)cc1,41.8 µM,17.4 µM,6.12 µM,28.9 µM,5.36 µM,3.82 µM,7.21 µM,18.5 µM,14.1 µM,8.36 µM
COc1cc(/C=C2\C[C@H]3[C@@H]4CCC5=CC(=O)CC[C@]5(C)[C@H]4CC[C@]3(C)C2=O)cc(OC)c1OC,> 100 µM,> 49 µM,> 63.6 µM,> 100 µM,> 100 µM,> 100 µM,> 89.4 µM,> 100 µM,> 95.4 µM,> 100 µM
N#CC1=C(N)N(/N=C/c2ccccc2)C(c2ccccc2)C1(C#N)C#N (stereo not given),14.5 µM,17.4 µM,30.5 µM,34.9 µM,8.5 µM,30.6 µM,31.6 µM,38 µM,29.4 µM,31 µM
C[C@H]1C2Cc3cc(O)ccc3[C@@]1(C)CCN2CCc1ccc(N)cc1,36 µM,47 µM,38.4 µM,26.4 µM,72.8 µM,> 100 µM,> 100 µM,45.8 µM,> 100 µM,> 100 µM
N#[N+]c1c([O-])c2ccccc2c2ccccc12,> 100 µM,> 100 µM,> 100 µM,> 100 µM,> 100 µM,> 100 µM,82.9 µM,> 100 µM,> 100 µM,> 100 µM
COC(=O)c1c(CC(Cc2ccc3c(c2)CCCC3)C(=O)O)ccc2c1CCCC2 (stereo not given),> 100 µM,34.3 µM,> 100 µM,70.2 µM,91.6 µM,> 100 µM,> 100 µM,> 100 µM,> 100 µM,> 100 µM
Cc1ccc2nc3n[nH]c(N)c3nc2c1,> 100 µM,> 100 µM,> 100 µM,> 100 µM,> 100 µM,> 100 µM,> 100 µM,> 100 µM,> 100 µM,> 100 µM
Nc1ccc(-c2nc3ccc(F)cc3s2)cc1Cl,> 100 µM,> 100 µM,> 100 µM,> 100 µM,> 100 µM,> 100 µM,> 59.9 µM,> 100 µM,> 100 µM,> 100 µM
C=C1C[C@@H](O)[C@@H](Br)C(C)(C)[C@@]12C=CC(=O)CC2,> 100 µM,> 100 µM,> 100 µM,> 100 µM,> 100 µM,> 100 µM,> 100 µM,> 100 µM,> 100 µM,> 100 µM
Clc1ccc(-c2cc(-c3cc4cc(Br)ccc4nc3Cl)on2)cc1,27.5 µM,30.7 µM,30.6 µM,23.9 µM,> 50 µM,> 50 µM,> 50 µM,> 50 µM,> 50 µM,> 50 µM
O=C1/C(=C\c2ccc(Br)cc2)CCCc2ccccc21,43 µM,65.1 µM,47 µM,30.1 µM,58 µM,49.4 µM,52.7 µM,28.2 µM,55.9 µM,32.1 µM
Nc1nccc(NCC2(CO)CC(OCc3ccccc3)C2)n1 (stereo not given),> 100 µM,> 100 µM,> 100 µM,> 100 µM,> 100 µM,> 100 µM,> 100 µM,> 100 µM,> 100 µM,> 100 µM
FC(F)(F)c1ccc2c(c1)nc1n2C(c2c(Cl)cccc2Cl)SC1 (stereo not given),71.3 µM,28.8 µM,36.8 µM,40.1 µM,> 100 µM,56.1 µM,45.1 µM,74.7 µM,55.3 µM,32.2 µM
COc1ccc(/C=C2\C[C@H]3[C@@H]4CCC5=C/C(=N/O)CC[C@]5(C)[C@H]4CC[C@]3(C)\C2=N\O)cc1,> 100 µM,> 100 µM,> 100 µM,49.7 µM,86 µM,> 100 µM,> 100 µM,> 100 µM,53.7 µM,> 100 µM
O=[N+]([O-])C(/C(Cl)=C(\Cl)Br)=C(/Cl)SCc1ccccc1,4.61 µM,8.83 µM,4.09 µM,25.1 µM,13.4 µM,25.7 µM,13.5 µM,8.13 µM,7.38 µM,11.3 µM
CCC(=O)N/S(=N/S(=O)(=O)c1ccccc1)C(Cl)(Cl)Cl (stereo not given),> 100 µM,> 100 µM,> 100 µM,> 100 µM,> 100 µM,> 100 µM,> 100 µM,> 100 µM,> 100 µM,> 100 µM
